Assay [1] concerns E. chaffeensis. Briefly: E. chaffeensis infection of THP-1 cells, qPCR of 16S rRNA gene normalized to human actin. It counts as cell-based, Ehrlichia chaffeensis. Conditions: 10 μM, 2 days, vs DMSO control.
For a further assay, the system named is Etf-1-GFP. Description: mitochondrial localization of ectopically expressed Etf-1-GFP in RF/6A cells. As to conditions: 10 μM, 2 days. The assay is classed as cell-based, Ehrlichia chaffeensis. The procedure:
For mitochondria localization analysis, RF/6A cells were seeded onto a cover glass in a 12-well plate for 3 h, then infected with E. chaffeensis at ∼30 MOI. Alternatively, cells were transfected with Etf-1-GFP or Etf-1-DsRed plasmids using Fugene HD (Promega) or by electroporation at 100 V and 1,000 µF using the Gene Pulser Xcell System (BioRad) according to the manufacturers’ instructions ([16]). […] To examine the roles of macrocyclic peptides on Etf-1 localization on E. chaffeensis inclusions, infected RF/6A cells were treated with 10 μM peptides at 3 h pi for 2 days. At 2 days pi or pt, cells were washed 3 times with PBS, then fixed in 4% PFA for 20 min. Native Etf-1 and mitochondria marker cytochrome C proteins were labeled with rabbit anti-Etf-1 IgG and mouse anti-cytochrome C, then with AF488-conjugated goat anti-rabbit and anti-mouse secondary antibodies in PGS (PBS with 0.1% gelatin and 0.1% saponin) for 1 h each at RT. Host-cell and Ehrlichial DNAs were stained with 300 nM DAPI, and fluorescence with differential interference contrast images were observed and captured with a DeltaVision deconvolution microscope (Applied Precision, Issaquah, WA, USA). Percentages of Etf-1 protein colocalization with macrocyclic peptides or E. chaffeensis inclusions were quantified by counting 10–20 cells per group from three independent experiments.

The subject of assay [2] is E. chaffeensis. Description: morphological examination of E. chaffeensis infection of THP-1 cells by Diff-Quik staining. Conditions: THP-1 cells, Fig. S4 (with Figs. 5, S3).
In a further assay the target is Etf-1 (Ehrlichia chaffeensis, UniProt Q2GG12). Description: FP assay of Etf-1 binding with FAM-labeled peptides. The procedure:
The peptides were labeled at their C-terminus with carboxyfluorescein (FAM) through a β-Ala-β-Ala-Lys linker and evaluated for binding to Etf-1 by using a fluorescence polarization (FP) assay. […] This outcome is not unexpected, as screening OBOC libraries is often complicated by false positives, due to the presence of high ligand densities on library beads ([28]).
Fig. 2. Determination of binding affinity of Etf-1-binding peptides by FP assay. […] FAM-labeled peptide (50 nM) was incubated with serially diluted Etf-1 (starting from 25–30 μM in PBS, pH 7.4, supplemented with 5 mM DTT and 0.01% Triton X-100) for 1 h at RT. FP values were measured on a Tecan Infinite M1000 Pro plate reader. Titration curves (n ≥ 3) were fitted using GraphPad Prism and analyzed with TraceDrawer to calculate dissociation constants (KD). […] Data were analyzed using GraphPad Prism and fitted to a four-parameter variable slope equation to determine IC50 values.
Etf-1 and macrocyclic peptides were serially diluted in PBS supplemented with 5 mM DTT and 0.01% Triton X-100 (v/v). FAM-labeled peptides (50 nM) were prepared from a 10-μM DMSO stock and incubated with serially diluted Etf-1 for 1 h at room temperature (RT). Twenty microliters of the solutions were transferred to a black 384-well plate (Greiner Bio-One) and FP values were measured on a Tecan Infinite M1000 Pro plate reader with excitation and emission wavelengths at 470 and 535 nm, respectively. Titration curves (n ≥ 3) were fitted using GraphPad Prism v8.0 (GraphPad, La Jolla, CA, USA), and analyzed with TraceDrawer software v1.8 (Ridgeview Instruments AB, Uppsala, Sweden) to calculate the dissociation constant (KD, in nM).

For another assay, the system named is BECN1 binding to Etf-1. Briefly: streptavidin magnetic beads pull-down of BECN1 with biotin-Etf-1, Western blot. The assay is classed as biochemical. Conditions: 10 µM peptide; band intensities, DMSO control set as 1; Fig. 8B.

Starred links: 1 amine or outer side, 2 acyl side, 3 side chain; linkers in the order of their positions; H or OH if unused. Positions of bridges follow the written chain, without caps; N, C: chain ends. Non-standard residues stand in square brackets, D forms with d. Residues, ends and D or L forms follow the SMILES beside them. Trimesoyl = O=C(c1cc(C(=O)[*:2])cc(C(=O)[*:3])c1)[*:1]; 2Nal = N[C@@H](Cc1ccc2ccccc2c1)C(=O)O; Dap = NC[C@H](N)C(=O)O

Sequence of Etf-1 (Q2GG12 entry or part of it): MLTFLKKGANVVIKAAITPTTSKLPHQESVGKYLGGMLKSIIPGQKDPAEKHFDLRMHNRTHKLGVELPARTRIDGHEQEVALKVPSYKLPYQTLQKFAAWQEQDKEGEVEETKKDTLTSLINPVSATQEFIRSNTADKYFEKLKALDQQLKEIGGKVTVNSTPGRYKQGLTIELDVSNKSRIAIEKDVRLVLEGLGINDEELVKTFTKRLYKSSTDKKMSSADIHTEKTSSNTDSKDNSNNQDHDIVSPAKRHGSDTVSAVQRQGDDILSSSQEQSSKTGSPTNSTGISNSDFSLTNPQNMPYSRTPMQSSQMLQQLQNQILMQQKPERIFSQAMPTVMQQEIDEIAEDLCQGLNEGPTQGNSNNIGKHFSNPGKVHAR

`C[C@H]1NC(=O)[C@H](CO)NC(=O)[C@@H](CCC(=O)O)NC(=O)c2cc3cc(c2)C(=O)NC[C@H](NC(=O)[C@H](CO)NC(=O)[C@H](Cc2c[nH]cn2)NC(=O)[C@@H](Cc2ccccc2)NC1=O)C(=O)N[C@H](Cc1ccccc1)C(=O)N[C@@H](Cc1ccc2ccccc2c1)C(=O)N[C@@H](CCCNC(=N)N)C(=O)N[C@H](CCCNC(=N)N)C(=O)N[C@@H](CCCNC(=N)N)C(=O)N[C@H](CCCNC(=N)N)C(=O)N[C@H](C(N)=O)CNC3=O` [Peptide C17, TMA-glu-Ser-ala-phe-His-Ser-Dap-phe-Nal-Arg-arg-Arg-arg-Dap] ([dE]S[dA][dF]HS[Dap][dF][2Nal]R[dR]R[dR][Dap]-NH2; linker N-7-14 via Trimesoyl): in the assay with E. chaffeensis [1], the “inhibition of E. chaffeensis infection” value is recorded as “no effect”. Besides, the “effect on mitochondrial localization of Etf-1-GFP” value in the assay with Etf-1-GFP is “neither peptide B7 nor C17 affected mitochondrial localization”. Moreover, the “E. chaffeensis infection (numbers and sizes of morulae)” value with E. chaffeensis [2] is “did not inhibit”. For the same molecule, the Kd at Etf-1 was greater than 25 µM. Further, in the assay with BECN1 binding to Etf-1, the “BECN1/Etf-1 Ratio” value was determined as 1.17.

Source of the values: publication PMC9982066, “Inhibition of Ehrlichia chaffeensis infection by cell-permeable macrocyclic peptides that bind type IV secretion effector Etf-1” (PNAS Nexus, 2023).
